Patent publication US20240246918A1, “COMPOUNDS AND COMPOSITIONS AS EIF4E INHIBITORS AND THE USES THEREOF” (Ribometrix, Inc., priority 2022, published 2024)

Tests used:
human eIF4E protein = target: T1, human eIF4E protein (Homo sapiens, UniProt P06730); experiment: Biochemical competitive binding assay (TR-FRET competition, EDA-m7GDP-ATTO-647N probe); conditions: read-out: hEIF4E TR-FRET IC50
T1 construct: purchased Novus NBP-45314
How it was run: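 His-tagged human eIF4E (4 nM) was preincubated with Eu-anti-His antibody (2.5 nM) and added to compound (11-point, 4-fold dilutions) for 15 min. Then 5 nM EDA-m7GDP-ATTO-647N was added for 15 min, in HEPES pH 7.5, 100 mM KCl. The 665/620 TR-FRET ratio was normalized to controls, and IC50 was taken from 4-parameter fits.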

[1] = tested on: COLO 205 colorectal tumor cells; experiment: Tumor cell viability inhibition assay (CellTiter-Glo 2.0, 72 hours); format: cell-based; conditions: COLO 205 cell viability
How it was run: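 COLO 205 cells (1500/well, RPMI-1640 + 10% FBS) exposed for 72 h to an 11-point, 4-fold dilution series; cellular ATP read by CellTiter-Glo 2.0 luminescence. Data normalized to DMSO and maximum-inhibition controls; IC50 from 4-parameter curve fit.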

T1 sequence (P06730 whole entry): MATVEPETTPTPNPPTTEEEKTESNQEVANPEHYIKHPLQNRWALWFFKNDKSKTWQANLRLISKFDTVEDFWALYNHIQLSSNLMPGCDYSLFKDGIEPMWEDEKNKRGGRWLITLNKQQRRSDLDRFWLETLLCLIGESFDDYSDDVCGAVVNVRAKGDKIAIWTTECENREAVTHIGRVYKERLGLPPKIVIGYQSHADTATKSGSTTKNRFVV

Row | SMILES | IC50 (human eIF4E protein) [nM] | IC50 ([1]; Homo sapiens, COLO 205, 72 h) [nM] | IC50 [1] [nM]
1 | Cc1cc(-c2cc(Cl)ccc2OCCn2c(C)nc3c(c2=O)C[C@@H](N2CCC(c4cc(F)cc(F)c4F)CC2)CC3)c2scc(C(=O)O)c2n1 (single isomer, unassigned) [Compound 574] | < 100 | < 5000 | –
2 | Cc1cc(-c2cc(Cl)ccc2OCCn2c(C)nc3c(c2=O)C[C@@H](N2CCC4(CC2)CC4(F)F)CC32CC2)c2scc(C(=O)O)c2n1 (single isomer, unassigned) [Compound 591] | < 100 | < 5000 | –
3 | Cc1cc(-c2cc(Cl)ccc2OCCn2c(C)nc3c(c2=O)CC(N2CCC(OC(F)(F)F)CC2)CC3)c2scc(C(=O)NS(C)(=O)=O)c2n1 (single isomer, unassigned) [Compound 104] | < 100 | < 5000 | –
4 | Cc1cc(-c2cc(Cl)ccc2OCCn2c(C)nc3c(c2=O)CC(N2CCC4(CN(CC(F)(F)F)CC(F)(F)C4)C2)CC3)c2scc(C(=O)O)c2n1 (single isomer, unassigned) [Compound 512] | < 100 | – | < 5000
5 | Cc1cc(-c2cc(Cl)ccc2OCCn2c(C)nc3c(c2=O)C[C@H](N2CCC(c4ccn(C)n4)CC2)CC3)c2scc(C(=O)O)c2n1 (single isomer, unassigned) [Compound 453] | < 100 | > 20000 | –
6 | COC1CCN(C2(C)CCc3nc(C)n(CCOc4ccc(Cl)cc4-c4cc(C)nc5c(C(=O)O)csc45)c(=O)c3C2)CC1 (single isomer, unassigned) [Compound 497] | 100 to 500 | – | > 20000
7 | Cc1cc(-c2cc(Cl)ccc2OCCn2c(C)nc3c(c2=O)CC(N2CCC(CC(F)(F)F)CC2)CC3(C)C)c2scc(C(=O)O)c2n1 (single isomer, unassigned) [Compound 500] | < 100 | – | < 5000
8 | Cc1csc([C@@H]2CCCN([C@H]3CCc4nc(C)n(CCOc5ccc(Cl)cc5-c5cc(C)nc6c(C(=O)O)csc56)c(=O)c4C3)C2)n1 (single isomer, unassigned) [Compound 481] | < 100 | < 5000 | –
9 | Cc1cc(-c2cc(Cl)ccc2OCCn2c(C)nc3c(c2=O)C[C@H](N2CCC(n4ccnn4)CC2)CC3)c2scc(C(=O)O)c2n1 (single isomer, unassigned) [Compound 422] | < 100 | 5000 to 20000 | –
10 | Cc1cc(-c2cc(Cl)ccc2OCCn2c(C)nc3c(c2=O)C[C@@H](N2CCCC[C@@H]2c2nccs2)CC3)c2scc(C(=O)O)c2n1 (single isomer, unassigned) [Compound 549] | 100 to 500 | > 20000 | –

Further lines, results first:

Row | IC50 (human eIF4E protein) [nM] | IC50 ([1]; Homo sapiens, COLO 205, 72 h) [nM] | IC50 [1] [nM] | SMILES
11 | < 100 | < 5000 | – | Cc1cc(-c2cc(Cl)ccc2OCCn2c(C)nc3c(c2=O)C[C@@H](N(C)C24CC5CC(CC(C5)C2)C4)CC3)c2scc(C(=O)O)c2n1 (single isomer, unassigned) [Compound 493]
12 | < 100 | < 5000 | – | Cc1cc(-c2cc(Cl)ccc2OCCn2c(C)nc3c(c2=O)C[C@@H](N2C[C@H]4CC[C@@H]2CC4OC(F)(F)F)CC3)c2scc(C(=O)O)c2n1 (single isomer, unassigned) [Compound 502]
13 | < 100 | < 5000 | – | Cc1cc(-c2cc(Cl)ccc2OCCn2c(C)nc3c(c2=O)C[C@H](NC24CC5CC(CC(C5)C2)C4)CC3)c2scc(C(=O)O)c2n1 (single isomer, unassigned) [Compound 412]
14 | < 100 | < 5000 | – | Cc1cc(-c2cc(Cl)ccc2OCCn2c(C)nc3c(c2=O)C[C@H](N2CCC(N4CC(F)(F)C4)CC2)CC3)c2scc(C(=O)O)c2n1 (single isomer, unassigned) [Compound 111]
15 | < 100 | < 5000 | – | Cc1cc(-c2cc(Cl)ccc2OCCn2c(C)nc3c(c2=O)C[C@H](N2CCC(C(F)(F)F)CC2)CC3)c2scc(C(=O)O)c2n1 (single isomer, unassigned) [Compound 373]
16 | < 100 | < 5000 | – | Cc1cc(-c2cc(Cl)ccc2OCCn2c(C)nc3c(c2=O)C[C@@H](N2CC4CCC(C2)C4OC(F)(F)F)CC3)c2scc(C(=O)O)c2n1 (single isomer, unassigned) [Compound 495]
